These results are taken from patent publication US8822430B2 (Gilead Sciences, Inc., priority 2009, dated 2014).

Molecules are shown by their SMILES. pEC50: −log10 of the molar value.

The subject of the first experiment is HCV 1b RLuc cells (dicistronic genotype 1b Con1 replicon). The experiment in a line: Renilla luciferase (RLuc)-based HCV replicon reporter assay. It counts as cell-based, HCV genotype 1b. The following applies: Hepatitis C virus, 72 h, HCV 1b RLuc replicon, 72 hours; read-out: Activity (antiviral potency [EC50]). A digest of the protocol: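 HCV 1b RLuc cells carrying a dicistronic genotype 1b Con1 replicon were treated with serially diluted compounds from 10 mM DMSO stocks. After 72 h, cells were lysed and Renilla luciferase activity measured. EC50 was obtained by non-linear regression.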
In general terms: A replicon is a self-replicating genome or part of one, used to study replication in cells.
One may read the pEC50 as the negative decadic logarithm of the EC50, by convention in mol/L. Take `COC(=O)N[C@H](C(=O)N1CCC[C@H]1c1ncc(-c2ccc(-c3ccc4cc(-c5cnc([C@@H]6CCCN6C(=O)[C@@H](NC(=O)OC)C(C)C)[nH]5)ccc4c3)cc2)[nH]1)c1ccc(F)cc1`: the pEC50 is 10.37.
Same read-out and setting: under `COC(=O)N[C@@H](C)C(=O)N1[C@@H]2CC[C@@H](C2)[C@H]1c1ncc(-c2ccc(-c3ccc4cc(-c5cnc([C@@H]6CC7(CC7)CN6C(=O)[C@@H](NC(=O)OC)C(C)C)[nH]5)ccc4c3)cc2)[nH]1` stands 10.81.
Same read-out and setting: under `COC(=O)NC(C(=O)N1CCC[C@H]1c1ncc(-c2ccc(-c3ccc(-c4cnc([C@@H]5CCCN5C(=O)[C@@H](NC(=O)OC)C(C)C)[nH]4)cc3)c3ccccc23)[nH]1)C(C)C` (stereo partly drawn) stands 11.17; under `COC(=O)N[C@H](C(=O)N1CCC[C@H]1c1nc2ccc(-c3ccc(-c4cnc([C@@H]5[C@H]6CC[C@H](C6)N5C(=O)[C@@H](NC(=O)OC)C(C)C)[nH]4)cc3)cc2[nH]1)C(C)C`, 10.26; under `COC(=O)N[C@H](C(=O)N1CCC[C@H]1c1nc2ccc(C#CC#Cc3ccc4nc([C@@H]5CCCN5C(=O)[C@@H](NC(=O)OC)C(C)C)[nH]c4c3)cc2[nH]1)C(C)C`, 10.58.
Same read-out and setting: to `COC(=O)N[C@@H](C)C(=O)N1CCC[C@H]1c1ncc(-c2ccc3c(c2)CCc2cc(-c4cnc([C@@H]5[C@H]6CC[C@H](C6)N5C(=O)[C@H](C)NC(=O)OC)[nH]4)ccc2-3)[nH]1` belongs 10.43.
Consider `COC(=O)N[C@H](C(=O)N1CCC[C@H]1c1ncc(-c2ccc(-c3ccc(-c4cnc(CN5CCC[C@H](NC(=O)OC(C)(C)C)C5=O)[nH]4)cc3)cc2)[nH]1)C(C)C`, for which the pEC50 was 10.24.
As for `COC(=O)N[C@H](C(=O)N1CCC[C@H]1c1ncc(-c2ccc3cc(-c4ccc(-c5cnc([C@@H]6[C@H]7CC[C@H](C7)N6C(=O)[C@@H](NC(=O)OC)C(C)C)[nH]5)cc4)ccc3c2)[nH]1)C(C)C`, the pEC50 was 11.22.
On to `COC(=O)N[C@H](C(=O)N1C[C@@H](C#N)C[C@H]1c1ncc(-c2ccc3c(c2)C(F)(F)c2cc(-c4ccc5nc([C@@H]6CC7(CC7)CN6C(=O)[C@@H](NC(=O)OC)C(C)C)[nH]c5c4)ccc2-3)[nH]1)C(C)C`, for which the pEC50 is 11.19.
The same measure, in the same setting: to `COC(=O)N[C@H](C(=O)N1CCC[C@H]1c1ncc(-c2ccc3c(c2)Sc2cc(-c4cnc([C@@H]5CCCN5C(=O)[C@@H](NC(=O)OC)C(C)C)[nH]4)ccc2S3)[nH]1)C(C)C` belongs 9.46; to `COC(=O)N[C@H](C(=O)N1CCC[C@H]1c1ncc(C#Cc2ccc(-c3ccc4nc([C@@H]5CCCN5C(=O)[C@@H](NC(=O)OC)C(C)C)[nH]c4c3)cc2)[nH]1)C(C)C`, 10.77.
Still for that read-out and setting: under `COC(=O)N[C@H](C(=O)N1CCC[C@H]1c1ncc(-c2ccc3c(c2)C(F)(F)c2cc(-c4ccc5nc([C@@H]6[C@H]7CC[C@H](C7)N6C(=O)[C@@H](NC(=O)OC)C(C)C)[nH]c5c4)ccc2-3)[nH]1)C(C)C` stands 11.54; under `CON[C@H](C(=O)N1CCC[C@H]1c1ncc(-c2ccc(-c3ccc4cc(-c5cnc([C@@H]6CCCN6C(=O)[C@@H](NC(=O)OC)C(C)C)[nH]5)ccc4c3)cc2)[nH]1)C(C)C`, 9.28.
Still for that read-out and setting: to `COC(=O)N[C@H]1CC[C@H]2CC[C@@H](c3ncc(-c4ccc(-c5ccc(-c6cnc([C@@H]7CCCN7C(=O)[C@@H](NC(=O)OC)C(C)C)[nH]6)cc5)cc4)[nH]3)N2C1=O` belongs 9.81.
On to `COC(=O)N[C@H](C(=O)N1CCC[C@H]1c1ncc(-c2ccc(-c3cccc4c(-c5ccc(-c6cnc([C@@H]7CCCN7C(=O)[C@@H](NC(=O)OC)C(C)C)[nH]6)cc5)cccc34)cc2)[nH]1)C(C)C`, for which the pEC50 was 7.57.
Same read-out and setting: to `COC(=O)N[C@@H](CC#N)C(=O)N1[C@@H]2CC[C@@H](C2)[C@H]1c1ncc(-c2ccc3cc(-c4ccc(-c5cnc([C@@H]6CCCN6C(=O)[C@@H](NC(=O)OC)C(C)C)[nH]5)cc4)ccc3c2)[nH]1` belongs 10.89; to `COC(=O)NC(C(=O)N1CCC[C@H]1c1ncc(-c2cc3sc(-c4ccc(-c5cnc([C@@H]6CCCN6C(=O)[C@H](NC(=O)OC)c6ccccc6)[nH]5)cc4)cc3s2)[nH]1)C(C)C` (stereo partly drawn), 11.23; to `COC(=O)NC(C(=O)N1CCS[C@H]1c1nc(-c2cc3c(OC)c4sc(-c5c[nH]c([C@@H]6SCCN6C(=O)C(NC(=O)OC)c6ccccc6)n5)cc4c(OC)c3s2)c[nH]1)c1ccccc1` (stereo partly drawn), 8.36.
Still for that read-out and setting: to `COC(=O)N[C@H](C(=O)N1CCC[C@H]1c1ncc(-c2ccc(-c3ccc4cc(-c5cnc([C@@H]6CCCN6C(=O)[C@@H](NC(=O)OC)C(C)C)[nH]5)ccc4c3)cc2)[nH]1)C(C)C` belongs 11.33.
Same read-out and setting: to `COC(=O)N[C@H](C(=O)N1CCC[C@H]1c1ncc(-c2ccc3cc(-c4ccc(-c5cnc([C@@H]6C[C@H](CN(C)C)CN6C(=O)[C@@H](NC(=O)OC)C(C)C)[nH]5)cc4)ccc3c2)[nH]1)C(C)C` belongs 9.90.
On to `COC(=O)NC(C(=O)N1CCC[C@H]1c1ncc(-c2ccc(-c3ccc4cc(-c5cnc([C@@H]6CCCN6C(=O)[C@@H](NC(=O)OC)C(C)C)[nH]5)ccc4c3)cc2)[nH]1)c1ccccc1C` (stereo partly drawn), for which the negative logarithm of the EC50 (pEC50) is 10.93.
Still for that read-out and setting: under `COC(=O)N[C@H](C(=O)N1CCC[C@H]1c1ncc(-c2ccc3c(c2)COCc2cc(-c4cnc([C@@H]5[C@H]6CC[C@H](C6)N5C(=O)[C@@H](NC(=O)OC)C(C)C)[nH]4)ccc2-3)[nH]1)C(C)C` stands 10.66; under `COC(=O)N[C@H](C(=O)N1CCC[C@H]1c1ncc(-c2ccc(N3CCN(c4ccc(-c5cnc([C@@H]6CCCN6C(=O)[C@@H](NC(=O)OC)C(C)C)[nH]5)cc4)CC3)cc2)[nH]1)C(C)C`, 9.70.
Same read-out and setting: under `COC(=O)N[C@H](C(=O)N1CCC[C@H]1c1ncc(C23CCC(c4cccc(-c5cnc([C@@H]6CCCN6C(=O)[C@H](NC(=O)OC)C(C)C)[nH]5)c4)(CC2)CC3)[nH]1)C(C)C` stands no more than 7.35.
The same measure, in the same setting: to `COC(=O)N[C@H](C(=O)N1CCC[C@H]1c1ncc(-c2ccc(-c3cnc(-c4ccc(-c5cnc([C@@H]6CCCN6C(=O)[C@@H](NC(=O)OC)C(C)C)[nH]5)cc4)s3)cc2)[nH]1)C(C)C` belongs 10.41.
On to `COC(=O)N[C@H](C(=O)N1CCC[C@H]1c1ncc(-c2ccc(-c3ccc(-c4cnc([C@@H]5SCCN5C(=O)[C@@H](NC(=O)OC)C(C)C)[nH]4)cc3)cc2)[nH]1)C(C)C`, for which the pEC50 is 10.77.
Same read-out and setting: under `COC(=O)N[C@H](C(=O)N1CCC[C@H]1c1ncc(-c2ccc(-c3ccc(-c4cnc([C@@H]5CN(C(C)=O)CN5C(=O)[C@@H](NC(=O)OC)C(C)C)[nH]4)cc3)cc2)[nH]1)C(C)C` stands 10.07; under `COC(=O)N[C@H](C(=O)N1CCC[C@H]1c1ncc(-c2ccc3c(c2)Nc2ccc(-c4cnc([C@@H]5CCCN5C(=O)[C@@H](NC(=O)OC)C(C)C)[nH]4)cc2S3)[nH]1)C(C)C`, 8.76.
The same measure, in the same setting: under `COC(=O)N[C@H](C(=O)N1CCC[C@H]1c1ncc(-c2cc3cc4sc(-c5cnc([C@@H]6CCCN6C(=O)[C@@H](NC(=O)OC)C(C)C)[nH]5)cc4cc3s2)[nH]1)C(C)C` stands 11.11; under `COC(=O)N[C@H](C(=O)N1CCC[C@H]1c1ncc(-c2ccc(-c3ccc(-c4cnc([C@@H]5CC6(CCC6)ON5C(=O)[C@@H](NC(=O)OC)C(C)C)[nH]4)cc3)cc2)[nH]1)C(C)C`, 11.08.
Still for that read-out and setting: under `COC(=O)N[C@H](C(=O)N1CCC[C@H]1c1ncc(-c2ccc3cc(-c4ccc(-c5cnc([C@@H]6CCCN6C(=O)[C@@H](NC(=O)OC)C(C)C)[nH]5)cc4)ccc3c2)[nH]1)c1ccccc1` stands 10.52.
Take `COC(=O)N[C@H](C(=O)N1CCC[C@H]1c1ncc(-c2ccc3cc(-c4ccc5cc(-c6cnc([C@@H]7CCCN7C(=O)[C@@H](NC(=O)OC)C(C)C)[nH]6)ccc5c4)ccc3c2)[nH]1)C(C)C`: the pEC50 is 10.62.
Still for that read-out and setting: to `COC(=O)NC(C(=O)N1CCC[C@H]1c1ncc(-c2ccc3cc(-c4ccc(-c5cnc([C@@H]6C[C@H](OC(F)F)CN6C(=O)[C@@H](NC(=O)OC)C(C)C)[nH]5)cc4)ccc3c2)[nH]1)c1ccccc1` (stereo partly drawn) belongs 10.77; to `COC(=O)N[C@H](C(=O)N1CCC[C@H]1c1ncc(-c2ccc(C#Cc3ccc(-c4cnc([C@@H]5[C@H]6CC[C@H](C6)N5C(=O)[C@@H](NC(=O)OC)C(C)C)[nH]4)cc3)cc2)[nH]1)C(C)C`, 10.14; to `COC(=O)N[C@H](C(=O)N1CCC[C@H]1c1ncc(-c2ccc3cc(-c4ccc(-c5cnc([C@@H]6CCCN6C(=O)[C@H](OC)c6ccccc6)[nH]5)cc4)ccc3c2)[nH]1)C(C)C`, 10.79.
Still for that read-out and setting: under `COC(=O)N[C@H](C(=O)N1CC2(CC2)C[C@H]1c1ncc(-c2ccc(-c3ccc4cc(-c5cnc([C@@H]6[C@H]7CC[C@H](C7)N6C(=O)[C@@H](NC(=O)OC)C(C)C)[nH]5)ccc4c3)cc2)[nH]1)C(C)C` stands 11.12; under `COC(=O)N[C@H](C(=O)N1CCC[C@H]1c1ncc(-c2ccc(-c3ccc(-c4ccc5nc([C@@H]6CCN6C(=O)[C@@H](NC(=O)OC)C(C)C)[nH]c5c4)cc3)cc2)[nH]1)C(C)C`, 10.55; under `COC(=O)N[C@@H](CCC#N)C(=O)N1CC2(CC2)C[C@H]1c1ncc(-c2ccc3cc(-c4ccc(-c5cnc([C@@H]6[C@H]7CC[C@H](C7)N6C(=O)[C@@H](NC(=O)OC)C(C)C)[nH]5)cc4)ccc3c2)[nH]1`, 10.80.
Same read-out and setting: to `COC(=O)N[C@H](C(=O)N1CCC[C@H]1c1ncc(-c2ccc(C#Cc3ccc(-c4cnc([C@@H]5CN(C(C)=O)CN5C(=O)[C@@H](NC(=O)OC)C(C)C)[nH]4)cc3)cc2)[nH]1)C(C)C` belongs 10.39.
With `COC(=O)N[C@H](C(=O)N1CCC[C@H]1c1ncc(-c2ccc3cc(-c4ccc(-c5cnc([C@@H]6CCCN6C(=O)[C@H](NC(=O)OC)c6ccccc6)[nH]5)cc4)ccc3c2)[nH]1)C(C)C`, the pEC50 is 11.09.
Same read-out and setting: to `COC(=O)N[C@@H](CCC(F)(F)F)C(=O)N1CCC[C@H]1c1ncc(-c2ccc(-c3ccc(-c4cnc([C@@H]5CCCN5C(=O)[C@@H](NC(=O)OC)C(C)C)[nH]4)cc3)cc2)[nH]1` belongs 10.40.

Still in this experiment, the particulars now being: Hepatitis C virus, 72 h, read-out: Activity (antiviral potency [EC50]).
As to `COC(=O)N[C@H](C(=O)N1CCC[C@H]1C(=O)Nc1ccc(NC(=O)c2ccc(NC(=O)[C@@H]3CCCN3C(=O)[C@@H](NC(=O)OC)C(C)C)cc2)cc1)C(C)C`, the pEC50 is 7.42.
